Assay results as given in PMC2817752, “Phenylbutyric Acid Rescues Endoplasmic Reticulum Stress-Induced Suppression of APP Proteolysis and Prevents Apoptosis in Neuronal Cells” (PLoS ONE, 2010).

Biological target: T1, γ-secretase (presenilin-1, PS1) (Mus musculus, UniProt P49769)
T1 construct: gene Psen1; endogenous γ-secretase complex in N2a (NAG) cells, APPGV16 as substrate; with Nicastrin and the other subunits of the heterotetrameric γ-secretase complex
Experiment: Gal4-luciferase reporter of γ-secretase cleavage of APPGV16 in stable N2a cells, […] h; CTF accumulation by western blot
Format: cell-based

C[C@H](NC(=O)Cc1cc(F)cc(F)c1)C(=O)N[C@H](C(=O)OC(C)(C)C)c1ccccc1 [DAPT]
IC50: ~1000 nM
